Values after ≈ are worked out from the molar mass of the structure shown.
Assay: Solubility limit of IAA in water
Type: physicochemical
Conditions: apparent, from the IAA concentration in the aqueous extract

- solubility: ~17 µg/mL (≈ 97 µM)
SMILES: O=C(O)Cc1c[nH]c2ccccc12 [IAA, indole-3-acetic acid]

Source: patent publication US20260283162A1, “INDOLEACETIC ACID-ENRICHED ALGAE EXTRACT” (FICOSTERRA, S.L., priority 2023, published 2026)
